In publication PMC7587962, “Evaluation of Cytotoxicity and α-Glucosidase Inhibitory Activity of Amide and Polyamino-Derivatives of Lupane Triterpenoids” (Molecules, 2020):

Legend:
[1] = system: BT-549; assay: NCI-60 SRB screen: breast cancer BT-549; type: cell-based, human; conditions: BT-549
[2] = system: TK-10; assay: NCI-60 SRB screen: renal cancer TK-10; type: cell-based, human; conditions: TK-10
[3] = system: MDA-MB-435; assay: NCI-60 SRB screen: melanoma MDA-MB-435; type: cell-based, human; conditions: MDA-MB-435
[4] = system: SF-539; assay: NCI-60 SRB screen: CNS cancer SF-539; type: cell-based, human; conditions: SF-539
[5] = system: SK-OV-3; assay: NCI-60 SRB screen: ovarian cancer SK-OV-3; type: cell-based, human; conditions: SK-OV-3
[6] = system: RPMI-8226; assay: NCI-60 SRB screen: leukemia RPMI-8226; type: cell-based; conditions: Homo sapiens, 48 h, RPMI-8226
[7] = system: Prostate cancer subpanel; assay: NCI-60 screen, subpanel Prostate cancer
[8] = system: MALME-3M; assay: NCI-60 SRB screen: melanoma MALME-3M; type: cell-based, human; conditions: MALME-3M
[9] = system: HT29; assay: NCI-60 SRB screen: colon cancer HT29; type: cell-based; conditions: Homo sapiens, HT29
[10] = system: COLO 205; assay: NCI-60 SRB screen: colon cancer COLO 205; type: cell-based, human; conditions: COLO 205
[11] = system: CAKI-1; assay: NCI-60 SRB screen: renal cancer CAKI-1; type: cell-based, human; conditions: CAKI-1
[12] = system: SF-268; assay: NCI-60 SRB screen: CNS cancer SF-268; type: cell-based, human; conditions: SF-268
[13] = system: K-562; assay: NCI-60 SRB screen: leukemia K-562; type: cell-based, human; conditions: K-562
[14] = system: SN12C; assay: NCI-60 SRB screen: renal cancer SN12C; type: cell-based, human
[15] = system: DU-145; assay: NCI-60 SRB screen: prostate cancer DU-145; type: cell-based, human; conditions: DU-145
[16] = system: SW-620; assay: NCI-60 SRB screen: colon cancer SW-620; type: cell-based; conditions: Homo sapiens, 48 h, SW-620
[17] = system: KM12; assay: NCI-60 SRB screen: colon cancer KM12; type: cell-based, human; conditions: KM12
[18] = system: NCI-H226; assay: NCI-60 SRB screen: non-small cell lung cancer NCI-H226; type: cell-based, human; conditions: NCI-H226
[19] = system: 60 human tumor cell lines; conditions: single dose 10 µM
[20] = system: HCT-15; assay: NCI-60 SRB screen: colon cancer HCT-15; type: cell-based, human; conditions: HCT-15
[21] = system: UO-31; assay: NCI-60 SRB screen: renal cancer UO-31; type: cell-based, human; conditions: UO-31
[22] = system: OVCAR-8; assay: NCI-60 SRB screen: ovarian cancer OVCAR-8; type: cell-based, human; conditions: OVCAR-8
[23] = system: HOP-62; assay: NCI-60 SRB screen: non-small cell lung cancer HOP-62; type: cell-based, human; conditions: HOP-62
[24] = system: A498; assay: NCI-60 SRB screen: renal cancer A498; type: cell-based, human; conditions: A498
[25] = system: RXF 393; assay: NCI-60 SRB screen: renal cancer RXF 393; type: cell-based, human; conditions: RXF 393
[26] = system: LOX IMVI; assay: NCI-60 SRB screen: melanoma LOX IMVI; type: cell-based, human
[27] = system: HCT-116; assay: NCI-60 SRB screen: colon cancer HCT-116; type: cell-based; conditions: Homo sapiens, 48 h, HCT-116
[28] = system: ACHN; assay: NCI-60 SRB screen: renal cancer ACHN; type: cell-based, human
[29] = system: 786-0; assay: NCI-60 SRB screen: renal cancer 786-0; type: cell-based, human; conditions: 786-0
[30] = system: SK-MEL-2; assay: NCI-60 SRB screen: melanoma SK-MEL-2; type: cell-based, human; conditions: SK-MEL-2
[31] = system: PC-3; assay: NCI-60 SRB screen: prostate cancer PC-3; type: cell-based, human; conditions: PC-3
[32] = system: T-47D; assay: NCI-60 SRB screen: breast cancer T-47D; type: cell-based, human; conditions: T-47D
[33] = system: HCC-2998; assay: NCI-60 SRB screen: colon cancer HCC-2998; type: cell-based, human; conditions: HCC-2998
[34] = system: Breast cancer subpanel; assay: NCI-60 screen, subpanel Breast cancer
[35] = system: MDA-MB-231/ATCC; assay: NCI-60 SRB screen: breast cancer MDA-MB-231/ATCC; type: cell-based; conditions: Homo sapiens, 48 h
[36] = system: NCI-H522; assay: NCI-60 SRB screen: non-small cell lung cancer NCI-H522; type: cell-based, human; conditions: NCI-H522
[37] = Homo sapiens, five concentrations, 48 h, SRB, read-out: GI50
[38] = single dose 10 µM, read-out: Percentage Cell Growth
[39] = five concentrations, SRB, read-out: GI50

## C=C(C)[C@@H]1CC[C@]2(C(=O)NCCNCCNCCN)CC[C@]3(C)[C@H](CC[C@@H]4[C@@]5(C)CCC(=O)C(C)(C)[C@@H]5CC[C@]43C)[C@@H]12 [Compound 11]
[1]; single dose 10 µM
  Percentage Cell Growth: 58.31%
[1]; [37]
  GI50: 8.91 µM
[2]; [37]
  GI50: 10.1 µM
[2]; single dose 10 µM
  Percentage Cell Growth: −77.68%
[3]; [37]
  GI50: 8.7 µM
[3]; single dose 10 µM
  Percentage Cell Growth: −49.89%
[4]; [37]
  GI50: 7.53 µM
[4]; single dose 10 µM
  Percentage Cell Growth: −92.71%
[5]; [37]
  GI50: 10.6 µM
[5]; single dose 10 µM
  Percentage Cell Growth: 70.49%
[6]; [38]
  activity at 10 µM: -30.7%
[6]; [39]
  GI50: 6.78 µM
[7]
  MID b, average sensitivity of all cell line of particular subpanel: 6.87 µM
  Selectivity, ratio MID a: MID b: 1.33
[8]; [37]
  GI50: 7.4 µM
[8]; single dose 10 µM
  Percentage Cell Growth: −72.82%
[9]; HT-29, 48 h, single dose 10 µM, read-out: Percentage Cell Growth
  activity at 10 µM: -77.4%
[9]; HT-29, five concentrations, 48 h, SRB, read-out: GI50
  GI50: 7.17 µM
[10]; single dose 10 µM
  Percentage Cell Growth: −47.48%
[10]; [37]
  GI50: 8.74 µM
[11]; single dose 10 µM
  Percentage Cell Growth: −8.79%
[11]; [37]
  GI50: 5.87 µM
[12]; [37]
  GI50: 7.53 µM
[12]; single dose 10 µM
  Percentage Cell Growth: −38.68%
[13]; Homo sapiens, K562, five concentrations, 48 h, SRB, read-out: GI50
  GI50: 8.2 µM
[13]; single dose 10 µM
  Percentage Cell Growth: −16.99%
[14]; [37]
  GI50: 7.56 µM
[14]; single dose 10 µM
  Percentage Cell Growth: −88.48%
[15]; single dose 10 µM
  Percentage Cell Growth: −56.67%
[15]; [37]
  GI50: 7.47 µM
[16]; [38]
  activity at 10 µM: -76.7%
[16]; [39]
  GI50: 7.91 µM
[17]; [37]
  GI50: 8.47 µM
[17]; single dose 10 µM
  Percentage Cell Growth: −81.93%
[18]; [37]
  GI50: 7.74 µM
[18]; single dose 10 µM
  Percentage Cell Growth: 74.30%
[19]; cell lines with negative growth
  cancer cell lethality, range of percentage growth: −4.36% to −96.35%
[19]; number of cell lines
  cases of cancer cell lethality: 50
[20]; single dose 10 µM
  Percentage Cell Growth: −36.56%
[20]; [37]
  GI50: 7.65 µM
[21]; [37]
  GI50: 6.85 µM
[21]; single dose 10 µM
  Percentage Cell Growth: −96.35%
[22]; [37]
  GI50: 8.41 µM
[22]; single dose 10 µM
  Percentage Cell Growth: −75.03%
[23]; single dose 10 µM
  Percentage Cell Growth: 43.09%
[23]; [37]
  GI50: 7.91 µM
[24]; single dose 10 µM
  Percentage Cell Growth: 80.81%
[24]; [37]
  GI50: 42.6 µM
[25]; [37]
  GI50: 5.6 µM
[25]; single dose 10 µM
  Percentage Cell Growth: −71.88%
[26]; [37]
  GI50: 8.72 µM
[26]; single dose 10 µM
  Percentage Cell Growth: −68.23%
[27]; [38]
  activity at 10 µM: -80.7%
[27]; [39]
  GI50: 6.65 µM
[28]; [37]
  GI50: 13.8 µM
[28]; single dose 10 µM
  Percentage Cell Growth: −83.29%
[29]; single dose 10 µM
  Percentage Cell Growth: −84.46%
[29]; [37]
  GI50: 7.8 µM
[30]; [37]
  GI50: > 50 µM
[30]; single dose 10 µM
  Percentage Cell Growth: 56.36%
[31]; [37]
  GI50: 6.26 µM
[31]; single dose 10 µM
  Percentage Cell Growth: −24.64%
[32]; Homo sapiens, T47D, five concentrations, 48 h, SRB, read-out: GI50
  GI50: 7.52 µM
[32]; single dose 10 µM
  Percentage Cell Growth: −4.36%
[33]; single dose 10 µM
  Percentage Cell Growth: −90.04%
[33]; [37]
  GI50: 7.16 µM
[34]
  MID b, average sensitivity of all cell line of particular subpanel: 8.04 µM
  Selectivity, ratio MID a: MID b: 1.14
[35]; MDA-MB-231/ATCC, single dose 10 µM, read-out: Percentage Cell Growth
  activity at 10 µM: -92.4%
[35]; MDA-MB-231, MDA-MB-31/ATCC, five concentrations, SRB, read-out: GI50
  GI50: 8.03 µM
[36]; [37]
  GI50: 8.72 µM
[36]; single dose 10 µM
  Percentage Cell Growth: −69.70%
